Test results from patent publication US20230057359A1, “NOVEL USE OF STEVIOL” (SUNTORY HOLDINGS LIMITED, priority 2019, published 2023).

Key:
Type in all cases: cell-based
[1] = test system: normal human subcutaneous preadipocytes differentiated into adipocytes; test: Cytotoxicity of steviol to adipocytes (WST-8 viable cell count); details: for Relative viable cell count (%): 10 days, Control=100%
Description: 5×10^5 normal human subcutaneous preadipocytes (Cat. No. PT-5020, Lonza Group AG) were precultured for 6 days in a T75 flask using a growth medium (PBM-2 medium supplemented with 10% FBS, 2 mM L-glutamine, 50 μg/mL gentamycin, and 37 ng/mL amphotericin-B, Cat. No. PT-8002, Lonza Group AG) in a CO2 incubator (37° C., 5% CO2; the same holds true for the description below). The cells were detached using 0.25% trypsin-EDTA, seeded at 10,000 cells/100 μL/well in a 96-well plate using the growth medium, and cultured overnight in a CO2 incubator. On the next day, the medium was replaced with 100 μL of a differentiation medium (PBM-2 medium supplemented with 10% FBS, 2 mM L-glutamine, 50 μg/mL gentamycin, 37 ng/mL amphotericin-B, insulin, dexamethasone, indomethacin, and 3-isobutyl-1-methylxanthine (IBMX), Cat. No. PT-8002, Lonza Group AG: the same holds true for the description below) supplemented with varying concentrations of steviol (0.001, 0.01, 0.1, 1, 10 or 100 μg/mL, dissolved in 0.1% DMSO (final concentration)). The cells were cultured for 10 days in a CO2 incubator to induce their differentiation into adipocytes. On the fourth and seventh days after the differentiation induction, the medium was replaced with a fresh medium (100 μL) having the same composition as above. A vehicle control composed of a differentiation medium supplemented with 0.1% DMSO (final concentration) was used as a negative control. Viable cell count measurement was performed by the WST-8 method. Specifically, the medium of each well after culture was replaced with a differentiation medium (100 μL) supplemented with a 1/10 amount of viable cell count measurement reagent SF, and the cells were incubated in a CO2 incubator. 30 minutes later and 90 minutes later, absorbance (450 nm, reference wavelength: 630 nm) was measured using a plate reader (VARIOSKAN FLASH, Thermo Fisher Scientific Inc.), and absorbance difference per 60 minutes was regarded as a relative viable cell count (Control=100%).

[2] = test system: adipocytes differentiated from normal human subcutaneous preadipocytes; test: Lipolysis test in adipocytes (free glycerol in culture supernatant); details: for Relative lipolysis level (%): 24 hours, DMSO=100%
Description: Normal human subcutaneous preadipocytes were precultured using the growth medium in the same manner as in Example 1. The cells were detached using 0.25% trypsin-EDTA, seeded at 10,000 cells/100 μL/well to a 96-well plate using the growth medium, and cultured overnight in a CO2 incubator. On the next day, the medium was replaced with the differentiation medium (100 μL), and the cells were cultured for 10 days in a CO2 incubator to induce their differentiation into adipocytes. On the fourth and seventh days after the differentiation induction, the medium was replaced with a fresh differentiation medium (100 μL). Next, the medium was replaced with a differentiation medium supplemented with varying concentrations of steviol (10, 30 or 100 μg/mL, dissolved in 0.1% DMSO (final concentration)), and the cells were cultured for 24 hours in a CO2 incubator. Then, a free glycerol level in a culture supernatant was measured using Adipolysis Assay Kit (Cat. No. 10009381, Cayman Chemical Co.) according to the manufacturer's protocol. For the measurement, absorbance (540 nm) was measured using a plate reader (VARIOSKAN FLASH, Thermo Fisher Scientific Inc.), and a relative free glycerol concentration was calculated. A differentiation medium supplemented with 10 μM isoproterenol (ISP) was used as a positive control, and a vehicle control (DMSO) composed of a differentiation medium supplemented with 0.1% DMSO (final concentration) and a no-addition control composed of only the differentiation medium were used as negative controls. Significant difference among the test groups to be compared (no-addition group vs positive control group, vehicle control group vs steviol addition group) was tested by the Student's t test. The two-tailed test was conducted, and P<0.05 was regarded as having significant difference.

[3] = test system: adipocytes differentiated from normal human subcutaneous preadipocytes; test: Sugar uptake test in adipocytes (intracellular 2DG6P, Glucose Uptake-Glo); details: for Relative luminescence intensity (%) (relative intracellular 2DG6P level): 4 hours, DMSO=100%
Description: Normal human subcutaneous preadipocytes were precultured using the growth medium in the same manner as in Example 1. The cells were detached using 0.25% trypsin-EDTA, seeded at 10,000 cells/100 μL/well to a 96-well plate using the growth medium, and cultured overnight in a CO2 incubator. On the next day, the medium was replaced with the differentiation medium (100 μL). The cells were cultured for 10 days in a CO2 incubator to induce their differentiation into adipocytes. On the fourth and seventh days after the differentiation induction, the medium was replaced with a fresh differentiation medium (100 μL). Next, the medium was replaced with 100 μLL of a serum-free medium (PBM-2 medium supplemented with 2 mM L-glutamine, 50 μg/mL gentamycin, and 37 ng/mL amphotericin-B, Cat. No. PT-8002, Lonza Group AG), and the cells were cultured for 18 hours in a CO2 incubator. Subsequently, the medium was replaced with 100 μL of a glucose-free serum-free medium (DMEM, no glucose, Cat. No. 11966025, Thermo Fisher Scientific Inc.) supplemented with varying concentrations of steviol (10, 30 or 100 μg/mL, dissolved in 0.1% DMSO (final concentration)), and the cells were cultured for 4 hours in a CO2 incubator. A glucose-free serum-free medium supplemented with 100 μM acadesine (AICAR, Cat. No. A9978, Sigma-Aldrich Co., LLC) was used as a positive control, and a vehicle control composed of a glucose-free serum-free medium supplemented with 0.1% DMSO (final concentration) and a no-addition control composed of only a glucose-free serum-free medium were used as negative controls. After culture, intracellular 2-deoxyglucose-6-phosphate (2DG6P, 2-deoxyglucose (2DG) phosphorylation product) level was measured by the following procedures using Glucose Uptake-Glo Assay kit (Cat. No. J1341, Promega Corp.). The medium of each well was replaced with a DPBS solution (50 μL) supplemented with 1 mM 2DG. After incubation at room temperature for 10 minutes, a stop buffer (25 μL), a neutralization buffer (25 μL), and a 2DG6P detection reagent (100 μL) were added thereto. After incubation at room temperature for 60 minutes, luminescence intensity was measured using a plate reader (VARIOSKAN FLASH, Thermo Fisher Scientific Inc.), and relative luminescence intensity was regarded as a relative intracellular 2DG6P level. Significant difference among the test groups to be compared (no-addition group vs positive control group, vehicle control group vs steviol addition group) was tested by the Student's t test. The two-tailed test was conducted, and P<0.05 was regarded as having significant difference.

C=C1C[C@@]23CC[C@H]4[C@@](C)(CCC[C@@]4(C)C(=O)O)[C@@H]2CC[C@]1(O)C3 [Steviol, steviol]
cytotoxicity to adipocytes (in words) ([1]; 100 μg/mL steviol): no particular cytotoxicity to be noted was found
Relative viable cell count (%) ([1]; steviol 0.01 μg/mL): 101.8%
Relative viable cell count (%) ([1]; steviol 0.1 μg/mL): 101.7%
Relative viable cell count (%) ([1]; steviol 1 μg/mL): 95.0%
Relative viable cell count (%) ([1]; steviol 10 μg/mL): 103.6%
Relative viable cell count (%) ([1]; steviol 100 μg/mL): 93.1%
lipolysis in adipocytes (in words) ([2]; 10, 30 or 100 μg/mL): promoted lipolysis in adipocytes in a concentration-dependent manner
Relative lipolysis level (%) ([2]; steviol 10 μg/mL): 99.5%
Relative lipolysis level (%) ([2]; steviol 30 μg/mL): 115.5%
Relative lipolysis level (%) ([2]; steviol 100 μg/mL): 123.4%
sugar uptake in adipocytes (in words) ([3]; 10, 30 or 100 μg/mL): promoted sugar uptake in adipocytes in a concentration-dependent manner
Relative luminescence intensity (%) (relative intracellular 2DG6P level) ([3]; steviol 10 μg/mL): 109.6%
Relative luminescence intensity (%) (relative intracellular 2DG6P level) ([3]; steviol 30 μg/mL): 142.5%
Relative luminescence intensity (%) (relative intracellular 2DG6P level) ([3]; steviol 100 μg/mL): 216.2%
